This is an account of results in patent USRE42274E1, “Cyclic peptide CXCR4 antagonists” (Eli Lilly and Company, priority 2007, dated 2011).

Structures can show the parent of a compound that is named as a salt. Bridge positions count the residues as written; N and C are the ends. Square brackets hold non-standard residues; d marks the D form. Peptide text beside a SMILES is read from it. 2Nal = N[C@@H](Cc1ccc2ccccc2c1)C(=O)O; Lys(iPr) = CC(C)NCCCC[C@H](N)C(=O)O A value given as a limit tells only on which side of the number the result lay.

The nature of one data set: Half-life in mice. Conditions: mouse, in vivo, read-out: half-life (T½) (converted). As to the method: (§1) Pharmacologic properties such as compound bioavailability, in vivo metabolic stability, and pharmacokinetic/pharmacodynamic properties can be determined by methods well known in the art of drug development. […] For example, in mice, the half-life (T½) of the compound of Example 58 is about 3 hours. With respect to pharmacodynamic properties, preferred compounds induce prolonged neutrophil and white blood cell mobilization in mice. For example, the compound of Example 25 induces a significant increase of neutrophils and white blood cells in peripheral blood for at least 6 hours after single dose subcutaneous administration at 5 mg/kg in mice.

The target of data set [1] is T1, human chemokine receptor CXCR2 (Homo sapiens, UniProt P25025).
T1 sequence (P25025 1-360): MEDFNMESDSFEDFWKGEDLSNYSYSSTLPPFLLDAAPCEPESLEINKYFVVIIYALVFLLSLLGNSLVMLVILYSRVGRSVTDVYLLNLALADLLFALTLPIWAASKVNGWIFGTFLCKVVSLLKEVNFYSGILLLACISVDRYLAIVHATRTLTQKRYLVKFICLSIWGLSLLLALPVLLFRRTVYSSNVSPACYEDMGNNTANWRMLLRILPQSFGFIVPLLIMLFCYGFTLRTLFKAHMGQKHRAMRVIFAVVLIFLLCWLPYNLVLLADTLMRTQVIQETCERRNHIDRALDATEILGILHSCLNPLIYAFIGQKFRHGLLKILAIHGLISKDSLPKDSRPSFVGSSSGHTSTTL
Kind of data set: Chemokine receptor binding selectivity assay, ligand binding. The source says: Chemokine Receptor Binding Selectivity Assays
The binding selectivity of the present compounds for the CXCR4 receptor compared to that for other chemokine receptors, such as human CCR1, CCR2, CXCR2, or CXCR3, and other G-protein-coupled receptors, can be assessed in cells transfected with nucleic acid encoding and expressing such receptors, or in cells in which such receptors are endogenously expressed. Whole cells or membrane fragments can be used to assess competition of test compounds with the respective ligands for these receptors in a manner similar to that described above for the CXCR4/^125I-SDF-1α binding inhibition assay.

Data set [2] can be described thus: In vivo metabolic stability in dog. Conditions: up to 24 hours after administration. As for the experimental part: as §1
Data set [3] is described as follows: In vivo metabolic stability in monkey. The conditions noted are these: up to 24 hours after administration. As to the method: as §1

Consider `CC(C)NCCCC[C@@H]1NC(=O)[C@H](Cc2ccc(O)cc2)NC(=O)[C@H](Cc2ccccc2)NC(=O)CC[C@H](C(=O)N[C@@H](CCCNC(=N)N)C(N)=O)NC(=O)CNC(=O)[C@H](Cc2ccc3ccccc3c2)NC(=O)[C@@H](CCCNC(=N)N)NC1=O` [Example 58, cyclo[Phe-Tyr-Lys(iPr)-DArg-2Nal-Gly-DGlu]-Arg-NH2] (FY[Lys(iPr)][dR][2Nal]G[dE]R-NH2; lactam N-7), for which the half-life in the data set “Half-life in mice” is around 3 h.
In data set [1], `CC(C)NCCCC[C@H](NC(=O)[C@H]1CCC(=O)N[C@@H](Cc2ccccc2)C(=O)N[C@@H](Cc2ccc(O)cc2)C(=O)N[C@@H](CCCCNC(C)C)C(=O)N[C@H](CCCNC(=N)N)C(=O)N[C@@H](Cc2ccc3ccccc3c2)C(=O)NCC(=O)N1)C(N)=O` [Example 57a, cyclo[Phe-Tyr-Lys(iPr)-DArg-2Nal-Gly-DGlu]-Lys (iPr)-NH2.acetic acid salt] (FY[Lys(iPr)][dR][2Nal]G[dE][Lys(iPr)]-NH2; lactam N-7) yielded a Ki above 73 µM. Besides, the “metabolites in plasma and urine” value in data set [2] and in data set [3] was “no detectable metabolites” in each case.

Usually half-life stands for how long it takes for the measured level to halve. One may read the Ki as the dissociation constant of the complex between target and ligand, obtained from inhibition or displacement.
